Reference: patent publication US4699905A, “Perhydrothiazepine derivatives, their preparation and their therapeutic use” (Sankyo Company, Limited, priority 1984, dated 1987)
pIC50: −log10 of the molar value.

Target: T1, ACE extracted from rabbit lungs (Oryctolagus cuniculus, UniProt P12822)
T1 construct: solutions of ACE extracted from rabbit lungs; from tissue; host or cells: rabbit lung
T1 sequence (P12822 34-1310): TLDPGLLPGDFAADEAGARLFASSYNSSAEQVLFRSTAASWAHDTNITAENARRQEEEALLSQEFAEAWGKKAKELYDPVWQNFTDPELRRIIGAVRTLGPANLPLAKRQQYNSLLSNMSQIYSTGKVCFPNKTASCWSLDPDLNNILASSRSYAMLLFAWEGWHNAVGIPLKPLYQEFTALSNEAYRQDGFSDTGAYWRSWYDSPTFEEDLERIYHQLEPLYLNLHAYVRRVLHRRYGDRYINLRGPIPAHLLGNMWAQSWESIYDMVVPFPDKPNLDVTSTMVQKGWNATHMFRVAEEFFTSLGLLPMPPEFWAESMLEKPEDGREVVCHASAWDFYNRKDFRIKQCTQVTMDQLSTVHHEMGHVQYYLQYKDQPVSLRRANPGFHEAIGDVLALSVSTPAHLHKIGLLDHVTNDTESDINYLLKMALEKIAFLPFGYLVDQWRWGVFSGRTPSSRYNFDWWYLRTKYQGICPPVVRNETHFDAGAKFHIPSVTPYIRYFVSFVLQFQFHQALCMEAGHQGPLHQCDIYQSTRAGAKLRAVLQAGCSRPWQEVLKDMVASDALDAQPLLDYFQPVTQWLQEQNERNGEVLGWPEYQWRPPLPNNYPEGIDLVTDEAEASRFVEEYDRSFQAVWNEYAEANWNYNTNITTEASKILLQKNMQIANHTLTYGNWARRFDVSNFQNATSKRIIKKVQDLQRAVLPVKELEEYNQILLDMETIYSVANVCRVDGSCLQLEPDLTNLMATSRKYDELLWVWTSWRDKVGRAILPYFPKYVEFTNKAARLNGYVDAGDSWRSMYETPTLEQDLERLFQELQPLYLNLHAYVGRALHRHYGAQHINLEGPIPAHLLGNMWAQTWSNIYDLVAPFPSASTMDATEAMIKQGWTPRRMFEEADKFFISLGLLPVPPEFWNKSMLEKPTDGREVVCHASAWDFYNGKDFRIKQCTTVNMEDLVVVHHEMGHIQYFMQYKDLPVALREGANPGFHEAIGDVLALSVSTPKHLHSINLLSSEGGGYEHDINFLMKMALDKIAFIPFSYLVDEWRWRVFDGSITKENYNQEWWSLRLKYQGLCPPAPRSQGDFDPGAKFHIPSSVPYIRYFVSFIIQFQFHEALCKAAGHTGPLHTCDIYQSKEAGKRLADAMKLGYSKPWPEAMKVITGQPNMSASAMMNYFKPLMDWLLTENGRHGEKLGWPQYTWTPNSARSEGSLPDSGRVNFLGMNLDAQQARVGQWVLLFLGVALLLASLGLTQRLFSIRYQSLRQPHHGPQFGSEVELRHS
Assay: inhibition of ACE activity in vitro (hippurylhistidylleucine substrate; procedure of Cushman et al.)
Type: biochemical
Details: borate buffer with sodium chloride, pH 8.3, 37° C., 30 minutes, hippuric acid by UV 228 nm
Method: As noted above, the compounds of the present invention have the ability to inhibit the activity of ACE, the enzyme which converts angiotensin I to angiotensin II and also inactivates bradykinin. […] W. Cushman et al. [Biochemical Pharmachology, 20, 1637 (1971)]. […] The enzymatic reaction was allowed to proceed at 37° C. for 30 minutes, after which time the reaction was terminated by adding 1N aqueous hydrochloric acid. […] The residual hippuric acid was dissolved in water. The amount of hippuric acid in the resulting aqueous solution was determined by the absorbency to ultraviolet radiation at 228 nm. These values were then plotted to form a curve indicating the relationship between the amount of hippuric acid formed and the concentration of the test compound. The IC50 value can be obtained by reading on this curve the concentration of the test compound which reduces the amount of hippuric acid formed to one half of that formed when no test compound is present.

Compound | pIC50
O=C(O)CN1CC(c2ccccc2)SCC(NC(CCc2ccccc2)C(=O)O)C1=O (single isomer, unassigned) [C] | 8.62
O=C(O)CN1CC(c2ccsc2)SCC(NC(CCc2ccccc2)C(=O)O)C1=O (single isomer, unassigned) [D] | 8.60
O=C(O)CN1CC(c2cccs2)SCC(NC(CCc2ccccc2)C(=O)O)C1=O (single isomer, unassigned) [E] | 8.62
O=C(O)CN1CC(c2ccco2)SCC(NC(CCc2ccccc2)C(=O)O)C1=O (single isomer, unassigned) [F] | 8.52
O=C(O)CN1CC(c2cccc3ccccc23)SCC(NC(CCc2ccccc2)C(=O)O)C1=O (single isomer, unassigned) [H] | 8.80
O=C(O)CN1CC(c2ccc3ccccc3c2)SCC(NC(CCc2ccccc2)C(=O)O)C1=O (single isomer, unassigned) [I] | 8.70
O=C(O)CN1C(=O)[C@@H](N[C@@H](CCc2ccccc2)C(=O)O)CSC[C@H]1c1ccccc1 [A] | 8.96
CC(C)[C@@H]1CSC[C@H](N[C@@H](CCc2ccccc2)C(=O)O)C(=O)N1CC(=O)O [B] | 8.80
O=C(O)CN1C(=O)[C@@H](N[C@@H](CCc2ccccc2)C(=O)O)CSC[C@H]1c1cccs1 [G] | 8.85
C[C@@H]1CSC[C@H](N[C@@H](CCc2ccccc2)C(=O)O)C(=O)N1CC(=O)O [J] | 8.52
O=C(O)CN1C(=O)[C@@H](N[C@@H](CCc2ccccc2)C(=O)O)CSC[C@@H]1Cc1ccccc1 [K] | 8.89
